Measurements: the supplement of paper PMC10307832

What was measured:
Experiment in all cases: relative viability (nuclei count vs DMSO), 5 days (fraction); higher = more cells survive
BMX-IN-1 + Pictilisib = compound: C=CC(=O)Nc1cc(-n2c(=O)ccc3cnc4ccc(-c5ccc(NS(C)(=O)=O)cc5)cc4c32)ccc1C [BMX-IN-1] + CS(=O)(=O)N1CCN(Cc2cc3nc(-c4cccc5[nH]ncc45)nc(N4CCOCC4)c3s2)CC1 [Pictilisib] (partner 1 µM)
Summary of the method: (§1)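 Relative viability is defined as nuclei in treated wells over nuclei in vehicle wells. Duplicate plates were run and medians reported. Lung cancer cell lines in 1536-well plates were dosed by pin tool one day after seeding, with one drug or with a fixed anchor-drug dose plus five library-drug doses (not always all listed) in √10 steps, and nuclei were counted after 5 days.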

BMX-IN-1 + Crizotinib = compound: C=CC(=O)Nc1cc(-n2c(=O)ccc3cnc4ccc(-c5ccc(NS(C)(=O)=O)cc5)cc4c32)ccc1C [BMX-IN-1] + C[C@@H](Oc1cc(-c2cnn(C3CCNCC3)c2)cnc1N)c1c(Cl)ccc(F)c1Cl [Crizotinib] (partner 1 µM)
Summary of the method: as §1

BMX-IN-1 + Vorinostat = compound: C=CC(=O)Nc1cc(-n2c(=O)ccc3cnc4ccc(-c5ccc(NS(C)(=O)=O)cc5)cc4c32)ccc1C [BMX-IN-1] + O=C(CCCCCCC(=O)Nc1ccccc1)NO [Vorinostat] (partner 1 µM)
Summary of the method: as §1

PAC-1 + Pictilisib = compound: C=CCc1cccc(/C=N/NC(=O)CN2CCN(Cc3ccccc3)CC2)c1O [PAC-1] + CS(=O)(=O)N1CCN(Cc2cc3nc(-c4cccc5[nH]ncc45)nc(N4CCOCC4)c3s2)CC1 [Pictilisib] (partner 1 µM)
Summary of the method: as §1

PAC-1 + Alpelisib = compound: C=CCc1cccc(/C=N/NC(=O)CN2CCN(Cc3ccccc3)CC2)c1O [PAC-1] + Cc1nc(NC(=O)N2CCC[C@H]2C(N)=O)sc1-c1ccnc(C(C)(C)C(F)(F)F)c1 [Alpelisib] (partner 2 µM)
Summary of the method: as §1

For SK-MES-1, which relative viability (BMX-IN-1 + Pictilisib; first compound 0.02 µM) is on record?
Its relative viability is 0.345.

What about the relative viability (BMX-IN-1 + Pictilisib; first compound 0.2 µM) of the same cell line?
Its relative viability is 0.383.

What about the relative viability (BMX-IN-1 + Pictilisib; first compound 0.6325 µM) of the same cell line?
Its relative viability is 0.414.

What about the relative viability (BMX-IN-1 + Pictilisib; first compound 2 µM) of the same cell line?
The relative viability was 0.344.

And the relative viability (BMX-IN-1 + Crizotinib; first compound 0.02 µM)?
The relative viability was 1.08.

And the relative viability (BMX-IN-1 + Crizotinib; first compound 0.2 µM)?
Its relative viability is 1.3.

And the relative viability (BMX-IN-1 + Crizotinib; first compound 0.6325 µM)?
The relative viability was 1.08.

And the relative viability (BMX-IN-1 + Crizotinib; first compound 2 µM)?
The relative viability was 1.1.

What about the relative viability (BMX-IN-1 + Vorinostat; first compound 0.02 µM) of the same cell line?
The relative viability was 1.1.

And the relative viability (BMX-IN-1 + Vorinostat; first compound 0.2 µM)?
Its relative viability is 1.18.

And the relative viability (BMX-IN-1 + Vorinostat; first compound 0.6325 µM)?
The relative viability was 1.45.

And the relative viability (BMX-IN-1 + Vorinostat; first compound 2 µM)?
Its relative viability is 0.717.

And the relative viability (PAC-1 + Pictilisib; first compound 0.02 µM)?
The relative viability was 0.336.

And the relative viability (PAC-1 + Pictilisib; first compound 0.06325 µM)?
Its relative viability is 0.297.

What about the relative viability (PAC-1 + Pictilisib; first compound 0.2 µM) of the same cell line?
The relative viability was 0.336.

What about the relative viability (PAC-1 + Pictilisib; first compound 2 µM) of the same cell line?
Its relative viability is 0.322.

What about the relative viability (PAC-1 + Alpelisib; first compound 0.02 µM) of the same cell line?
Its relative viability is 0.845.

And the relative viability (PAC-1 + Alpelisib; first compound 0.06325 µM)?
Its relative viability is 0.908.

What about the relative viability (PAC-1 + Alpelisib; first compound 0.2 µM) of the same cell line?
The relative viability was 0.878.

What about the relative viability (PAC-1 + Alpelisib; first compound 2 µM) of the same cell line?
The relative viability was 0.955.
